Data as given in PMC3397428 (Bioorganic & medicinal chemistry, 2012).
Entries after “also recorded” stand apart in the source; their conditions may differ.

Columns and labels:
PfDHODH = target: T1, PfDHODH (Plasmodium falciparum, UniProt Q08210); assay: DHODH inhibition, Plasmodium falciparum; type: biochemical
T1 sequence (Q08210 24-569): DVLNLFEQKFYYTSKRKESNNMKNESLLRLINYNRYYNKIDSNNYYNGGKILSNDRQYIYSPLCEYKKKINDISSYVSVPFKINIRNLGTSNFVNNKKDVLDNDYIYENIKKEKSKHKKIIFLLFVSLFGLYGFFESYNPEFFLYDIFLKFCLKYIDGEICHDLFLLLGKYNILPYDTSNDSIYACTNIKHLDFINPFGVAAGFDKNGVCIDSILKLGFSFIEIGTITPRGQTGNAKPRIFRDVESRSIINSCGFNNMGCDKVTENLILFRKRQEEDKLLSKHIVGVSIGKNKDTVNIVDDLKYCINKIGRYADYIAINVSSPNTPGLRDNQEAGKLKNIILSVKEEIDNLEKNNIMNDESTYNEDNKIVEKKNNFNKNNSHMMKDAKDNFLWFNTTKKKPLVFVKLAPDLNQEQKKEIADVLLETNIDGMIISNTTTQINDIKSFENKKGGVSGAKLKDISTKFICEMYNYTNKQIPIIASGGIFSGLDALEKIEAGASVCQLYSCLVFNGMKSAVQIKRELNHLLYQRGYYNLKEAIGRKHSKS

[1] = test system: B16-F10 mouse melanoma tumor cells; assay: B16-F10 syngeneic mouse melanoma model; type: in vivo; settings: athymic mice, 35 mg/kg IP 3 × weekly (M, W, F) for two weeks
[2] = Dose-finding study in athymic mice; settings: 35 mg/kg three times weekly for 4 weeks

SMILES | IC50 (PfDHODH) | growth rate of primary B16-F10 tumor [1] | loss in weight in dose-finding study [2] | toxicity in dose-finding study [2]
Nc1nc2c(c(Nc3ccccc3)n1)-c1ccccc1C2 [Compound 1, N^4-Phenyl-9H-indeno[2,1-d]pyrimidine-2,4-diamine] | ≥ 200 µM | – | – | –
Nc1nc2c(c(Nc3cccc(F)c3)n1)-c1ccccc1C2 [Compound 4, N^4-(3-Fluorophenyl)-9H-indeno[2,1-d]pyrimidine-2,4-diamine] | ≥ 200 µM | – | – | –
Nc1nc2c(c(Nc3ccc(Cl)cc3)n1)-c1ccccc1C2 [Compound 7, N^4-(4-Chlorophenyl)-9H-indeno[2,1-d]pyrimidine-2,4-diamine] | ≥ 200 µM | equipotent with the standard 21; also recorded: decreased tumor growth rate | no significant loss in weight | no apparent toxicity
Nc1nc2c(c(Nc3cccc(Br)c3)n1)-c1ccccc1C2 [Compound 8, N^4-(3-Bromophenyl)-9H-indeno[2,1-d]pyrimidine-2,4-diamine] | ≥ 200 µM | – | – | –
COc1cccc(Nc2nc(N)nc3c2-c2ccccc2C3)c1 [Compound 11, N^4-(3-Methoxyphenyl)-9H-indeno[2,1-d]pyrimidine-2,4-diamine] | ≥ 200 µM | – | – | –
Nc1nc2c(c(Nc3ccc(Cl)cc3F)n1)-c1ccccc1C2 [Compound 13, N^4-(4-Chloro-2-fluorophenyl)-9H-indeno[2,1-d]pyrimidine-2,4-diamine] | ≥ 200 µM | – | – | –
